According to publication PMC9952374, “De Novo Design of Imidazopyridine-Tethered Pyrazolines That Target Phosphorylation of STAT3 in Human Breast Cancer Cells” (Bioengineering, 2023):

Tests used:
MCF-7 cells = assay: Alamar Blue cell viability assay, MCF-7; format: cell-based, human; conditions: MCF-7 cell viability
From the text: (§1) The goal herein was to assess the ability of imidazopyridine-tethered pyrazolines to inhibit cell viability in mammary carcinoma cells (using the Alamar Blue assay), since pyridine-fused pyrazoles were previously shown to inhibit cell viability in various breast cancer cells. […] The low chemical stability of thio-urea-based compounds may account for the inactivity of most thiourea-conjugated pyrazolines (excluding 4g) against TNBC cells.
(§2) MCF-7 cells were procured from Procell Life Science and Technology Co. LTD, Wuhan, China. Human breast cancer T47D, BT474, and SK-BR-3 cells were obtained from American Type Culture Collection (Washington, DC, NW, USA). Cells (2000) were cultured in MEM or Leibovitz’s L-15 medium enriched with 2% FBS and maintained in a humidified atmosphere of 5% CO2 at 37 °C. A stock solution of DMSO-dissolved compounds was prepared, and this solution was diluted with culture medium as required. MCF-7 Cells (4 × 10^3) were cultured in 96-well plates for 12 h and then treated for 72 h with compounds at concentrations of […]. Using Alamar Blue, the compounds were evaluated for their inhibitory effects
Figure 2 Inhibitory effect of compounds 3f (A), 3e (B), 4g (C), and 3g (D) on the viability of MCF-7 cells. MCF-7 cells were treated with various concentrations of 2-pyrazolines for 72 h and the viability of cells was analyzed by Alamar Blue assays. The results are presented as mean ± S.E.M. of triplicate determinations.

T47D cells = assay: Alamar Blue cell viability assay, T47D; format: cell-based, human; conditions: T47D cell viability, Alamar Blue
From the text: as §1, §2

BT-474 cells = assay: Alamar Blue cell viability assay, BT-474; format: cell-based, human; conditions: BT-474 cell viability, Alamar Blue
From the text: as §1, §2

SK-BR-3 cells = assay: Alamar Blue cell viability assay, SK-BR-3; format: cell-based, human; conditions: SK-BR-3 cell viability
From the text: as §1, §2

MCF-10A cells = assay: Alamar Blue cell viability assay, normal MCF-10A; format: cell-based; conditions: normal MCF-10A cell viability

Molecule | IC50 (MCF-7 cells; Homo sapiens, MCF7, 72 h) | IC50 (T47D cells; Homo sapiens) | IC50 (BT-474 cells; Homo sapiens) | IC50 (SK-BR-3 cells; Homo sapiens) | IC50 (MCF-10A cells; Homo sapiens) | melting point | IC50 (MCF-7 cells; 72 h) | IC50 (T47D cells) | IC50 (BT-474 cells) | IC50 (SK-BR-3 cells) | IC50 (MCF-10A cells)
CC(=O)N1N=C(c2c(C)nc3ccc(C)cn23)CC1c1cccc([N+](=O)[O-])c1 (stereo not drawn) [Compound 2, 1-(3-(2,6-Dimethylimidazo[1,2-a]pyridin-3-yl)-5-(3-nitrophenyl)-4,5-dihydro-1H-pyrazol-1-yl)ethanone] | > 100 µM | > 100 µM | 97.8 ± 1.76 µM | > 100 µM | > 100 µM | 166 to 168 °C |  |  |  |  | 
Cc1ccc2nc(C)c(C3=NN(C(=O)CN4CCC(=O)CC4)C(c4cccc([N+](=O)[O-])c4)C3)n2c1 (stereo not drawn) [Compound 3a, 1-(2-(3-(2,6-Dimethylimidazo[1,2-a]pyridin-3-yl)-5-(3-nitrophenyl)-4,5-dihydro-1H-pyrazol-1-yl)-2-oxoethyl)piperidin-4-one] | 22.8 ± 1.36 µM | 23.3 ± 1.28 µM | 4.11 ± 0.41 µM | > 100 µM | > 100 µM | 170 to 172 °C |  |  |  |  | 
Cc1ccc2nc(C)c(C3=NN(C(=O)CN4CCN(C(=O)OC(C)(C)C)CC4)C(c4cccc([N+](=O)[O-])c4)C3)n2c1 (stereo not drawn) [Compound 3b, Tert-butyl-4-(2-(3-(2,6-dimethylimidazo[1,2-a]pyridin-3-yl)-5-(3-nitrophenyl)-4,5-dihydro-1H-pyrazol-1-yl)-2-oxoethyl)piperazine-1-carboxylate] | 22.3 ± 1.35 µM | 15.2 ± 1.13 µM | 21.3 ± 1.32 µM | 28.3 ± 1.34 µM | > 100 µM | 166 to 168 °C |  |  |  |  | 
Cc1ccc2nc(C)c(C3=NN(C(=S)Nc4ccccc4)C(c4cccc([N+](=O)[O-])c4)C3)n2c1 (stereo not drawn) [Compound 4a, 3-(2,6-Dimethylimidazo[1,2-a]pyridin-3-yl)-5-(3-nitrophenyl)-N-phenyl-4,5-dihydro-1H-pyrazoline-1-carbothioamide] |  |  |  |  |  |  | 81.4 ± 1.91 µM | > 100 µM | > 100 µM | > 100 µM | > 100 µM
Cc1ccc2nc(C)c(C3=NN(C(=S)NC4CCCCC4)C(c4cccc([N+](=O)[O-])c4)C3)n2c1 (stereo not drawn) [Compound 4c, N-Cyclohexyl-3-(2,6-dimethylimidazo[1,2-a]pyridin-3-yl)-5-(3-nitrophenyl)-4,5-dihydro-1H-pyrazoline-1-carbothioamide] |  |  |  |  |  |  | 46.1 ± 1.66 µM | > 100 µM | 52.8 ± 1.54 µM | > 100 µM | > 100 µM
Cc1ccc2nc(C)c(C3=NN(C(=S)Nc4cccc(Cl)c4)C(c4cccc([N+](=O)[O-])c4)C3)n2c1 (stereo not drawn) [Compound 4e, N-(3-Chlorophenyl)-3-(2,6-dimethylimidazo[1,2-a]pyridin-3-yl)-5-(3-nitrophenyl)-4,5-dihydro-1H-pyrazoline-1-carbothioamide] |  |  |  |  |  |  | > 100 µM | > 100 µM | > 100 µM | > 100 µM | > 100 µM
Cc1ccc(NC(=S)N2N=C(c3c(C)nc4ccc(C)cn34)CC2c2cccc([N+](=O)[O-])c2)cc1 (stereo not drawn) [Compound 4f, 3-(2,6-Dimethylimidazo[1,2-a]pyridin-3-yl)-5-(3-nitrophenyl)-N-(p-tolyl)-4,5-dihydro-1H-pyrazoline-1-carbothioamide] |  |  |  |  |  |  | 56.9 ± 1.39 µM | > 100 µM | > 100 µM | > 100 µM | > 100 µM
N-(4-Chlorophenyl)-3-(2,6-dimethylimidazo[1,2-a]pyridin-3-yl)-5-(3-nitrophenyl)-4,5-dihydro-1H-pyrazoline-1-carbothioamide [Compound 4d] |  |  |  |  |  |  | > 100 µM | > 100 µM | > 100 µM | > 100 µM | > 100 µM
N-Butyl-3-(2,6-dimethylimidazo[1,2-a]pyridin-3-yl)-5-(3-nitrophenyl)-4,5-dihydro-1H-pyrazoline-1-carbothioamide [Compound 4h] |  |  |  |  |  |  | > 100 µM | 54.4 ± 1.68 µM | > 100 µM | > 100 µM | 90.6 ± 1.98 µM
